Experimental data taken from ChEMBL document CHEMBL3508693 (2016).

How the values were obtained:
CYP1A2 = target: T1, CYP1A2 (Homo sapiens, UniProt P05177); assay: Inhibitory activity of 20 uM SPP100 on 545 Pmoles of cDNA-derived CYP1A2 enzyme in microsome prepared from human lymphoblastoid cell line; type: ADME, microsomes; set-up: conc 20 uM, interact cpd conc 50 uM; settings: probe phenacetin
T1 sequence (P05177 whole entry): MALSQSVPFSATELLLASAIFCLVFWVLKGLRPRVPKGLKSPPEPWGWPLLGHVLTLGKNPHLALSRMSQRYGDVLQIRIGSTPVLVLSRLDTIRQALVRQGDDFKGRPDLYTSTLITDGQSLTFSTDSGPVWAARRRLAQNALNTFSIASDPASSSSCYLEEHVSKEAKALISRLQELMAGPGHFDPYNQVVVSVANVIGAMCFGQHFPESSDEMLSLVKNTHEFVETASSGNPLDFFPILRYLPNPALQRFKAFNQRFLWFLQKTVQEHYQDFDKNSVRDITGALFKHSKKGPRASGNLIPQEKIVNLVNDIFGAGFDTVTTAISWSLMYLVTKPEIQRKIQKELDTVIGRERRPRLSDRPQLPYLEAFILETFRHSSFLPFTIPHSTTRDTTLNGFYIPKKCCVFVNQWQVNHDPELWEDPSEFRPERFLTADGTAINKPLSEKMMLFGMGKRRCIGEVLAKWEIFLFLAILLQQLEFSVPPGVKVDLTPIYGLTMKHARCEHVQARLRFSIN

[1] = % SPP100 (0-72h) recovered in faeces following single oral dose of [14C] aliskiren hemifumarate at 3 mg.Kg-1 level in marmoset; type: ADME, organism-based, Callithrix jacchus, Feces; settings: in vivo
[2] = Mean excretion of radioactivity (0-96h) in urine and faeces following single intravenous dose of 10 mg.Kg-1 [14C] aliskiren hemifumarate in rat; type: ADME, organism-based, Albino HAN:WIST, Urine/Feces; settings: in vivo
[3] = Mean excretion of radioactivity (72-96h) in urine and faeces following single oral dose of 100 mg.Kg-1 [14C] aliskiren hemifumarate in rat; type: ADME, organism-based, Albino HAN:WIST, Urine/Feces; settings: in vivo
[4] = Excretion (0-96h) of 14C-radioactivity in urine following single oral dose of 300 mg [14C]SPP100 studied in healthy men; type: ADME, organism-based; settings: human, in vivo, at 300 mg
[5] = Concentration of radioactivity in the colon wall following repeated oral administration of [14C] aliskiren hemifumarate at 100 mg.Kg-1 level studied at 2h after 10th dose in rat; type: ADME, organism-based, Albino HAN:WIST; settings: in vivo
[6] = Excretion (48h) of radioactivity in faeces following oral administration of [14C] aliskiren hemifumarate at 100 mg.Kg-1 level in rat; type: ADME, organism-based, Lister-Hooded, Feces; settings: in vivo
[7] = % of radioactivity (48h) recovered in cage wash of receiver rat following duodenal infusion of radioactivity through bile from donor rat treated with single intravenous administration of 10 mg.Kg-1 [14C] aliskiren hemifumarate; type: ADME, organism-based, HAN:WIST(SPF); settings: in vivo
[8] = Excretion of radioactivity (0-72h) in faeces following single oral dose of 500 mg.Kg-1 [14C] aliskiren hemifumarate in mouse; type: ADME, organism-based, TgRasH2, Feces; settings: in vivo
Cytochrome P450 3A4 = Cytochrome P450 3A4 (Homo sapiens, UniProt P08684); assay: Metabolic clearance (ul.min.nmol-1 CYP) of aliskiren hemifumarate for CYP3A4 was determined in human liver microsome incubated with [14C]SPP100 hemifumarate; type: ADME; settings: microsomes
Chain of Cytochrome P450 3A4 (P08684 whole entry): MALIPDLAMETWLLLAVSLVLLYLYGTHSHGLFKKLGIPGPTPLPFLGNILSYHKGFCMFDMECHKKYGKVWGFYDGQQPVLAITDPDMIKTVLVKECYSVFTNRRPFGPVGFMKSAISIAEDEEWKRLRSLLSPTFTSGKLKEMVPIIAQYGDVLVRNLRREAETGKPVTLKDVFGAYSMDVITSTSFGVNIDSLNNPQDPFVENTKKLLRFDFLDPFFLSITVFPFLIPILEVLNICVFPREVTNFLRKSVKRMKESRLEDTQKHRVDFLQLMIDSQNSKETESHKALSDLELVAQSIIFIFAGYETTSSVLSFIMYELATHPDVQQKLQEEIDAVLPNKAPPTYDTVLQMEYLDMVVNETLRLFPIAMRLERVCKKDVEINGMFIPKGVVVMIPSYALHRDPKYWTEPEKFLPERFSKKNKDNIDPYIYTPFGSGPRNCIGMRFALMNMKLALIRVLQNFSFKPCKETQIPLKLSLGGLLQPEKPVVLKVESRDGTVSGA

[9] = Mean excretion of radioactivity (0-72h) in urine and faeces following single intravenous dose of 10 mg.Kg-1 [14C] aliskiren hemifumarate in mouse; type: ADME, organism-based, TgRasH2, Urine/Feces; settings: in vivo
[10] = Excretion of radioactivity (48-72h) in faeces following single oral dose of 100 mg.Kg-1 [14C] aliskiren hemifumarate in rat; type: ADME, organism-based, Albino HAN:WIST, Feces; settings: in vivo
[11] = Plasma concentration of [14C] aliskiren hemifumarate in first 24h following single oral dose of [14C] aliskiren hemifumarate at 500 mg.Kg-1 level in mouse; type: ADME, organism-based, TgRasH2; settings: in vivo
[12] = Concentration of radioactivity in the liver following repeated oral administration of [14C] aliskiren hemifumarate at 100 mg.Kg-1 level studied at 2h after 3rd dose in rat; type: ADME, organism-based, Albino HAN:WIST; settings: in vivo
[13] = Cmax of unlabeled aliskiren hemifumarate following single oral dose of aliskiren hemifumarate at 500 mg.Kg-1 level in mouse; type: ADME, organism-based; settings: TgRasH2, mouse, plasma
[14] = Cmax of aliskiren hemifumarate following 2 week oral dosing of aliskiren hemifumarate at 10 mg.Kg-1 level studied on day 14 in female Callithrix jacchus; type: ADME, organism-based; settings: marmoset, plasma
[15] = AUC (0-96 or 0-168h) of unlabeled aliskiren hemifumarate following single intravenous administration of aliskiren hemifumarate at 1 mg.Kg-1 level in marmoset; type: ADME, organism-based, Callithrix jacchus; settings: plasma
[16] = AUCspec of aliskiren hemifumarate following 2 week oral dosing of aliskiren hemifumarate at 10 mg.Kg-1 level studied on […] in male Callithrix jacchus; type: ADME, organism-based, Plasma; settings: marmoset, in vivo, 336 h
[17] = Effect of 2 week oral dosing of aliskiren hemifumarate at 50 mg.Kg-1 level on plasma magnesium level in male Callithrix jacchus; type: toxicity, organism-based; settings: marmoset, 336 h
[18] = Cmax of aliskiren hemifumarate following 2 week oral dosing of aliskiren hemifumarate at 50 mg.Kg-1 level studied on day 14 in male Callithrix jacchus; type: ADME, organism-based; settings: marmoset, plasma
[19] = t1/2 of aliskiren hemifumarate following 2 week oral dosing of aliskiren hemifumarate at 100 mg.Kg-1 level studied on day 14 in male Callithrix jacchus; type: ADME, organism-based; settings: marmoset, plasma
[20] = AUC (0-24h) of aliskiren hemifumarate following 4 week oral dietary dosing of aliskiren hemifumarate at 500 mg.Kg-1 level in male mouse; type: ADME, organism-based; settings: CB6F1-TGrasH2, mouse, plasma
[21] = Tmax of aliskiren hemifumarate following 2 week oral dosing of aliskiren hemifumarate at 100 mg.Kg-1 level studied on day 14 in female Callithrix jacchus; type: ADME, organism-based; settings: marmoset, plasma
[22] = AUC/dose (0-168h) of unlabeled aliskiren hemifumarate following single intravenous administration of aliskiren hemifumarate at 1 mg.Kg-1 level in marmoset; type: ADME, organism-based, Callithrix jacchus, Plasma; settings: in vivo
[23] = Effect of 2 week oral dosing of aliskiren hemifumarate at 10 mg.Kg-1 level on blood urea nitrogen level in male Callithrix jacchus; type: toxicity, organism-based, Plasma; settings: marmoset, 336 h
[24] = Effect of 2 week oral dosing of aliskiren hemifumarate at 10 mg.Kg-1 level on hematological parameter values in female Callithrix jacchus; type: toxicity, organism-based, Plasma; settings: marmoset, in vivo, 336 h
[25] = Effect of 4 week oral dietary dosing of aliskiren hemifumarate at 1500 mg.Kg-1 level on density of uterine gland in female mouse; type: toxicity, organism-based, CB6F1-TGrasH2, Endometrial gland; settings: in vivo, 672 h
[26] = Cmaxspec of aliskiren hemifumarate following 2 week oral dosing of aliskiren hemifumarate at 10 mg.Kg-1 level studied on day 1 in male Callithrix jacchus; type: ADME, organism-based, Plasma; settings: marmoset, in vivo, 336 h
[27] = Cmax of aliskiren hemifumarate following single dosing of SPP100B oral solution at 40 mg level studied on day 1 in men; type: ADME, organism-based; settings: male, human, plasma
[28] = Cmax of aliskiren hemifumarate following 4 week oral dietary dosing of aliskiren hemifumarate at 1500 mg.Kg-1 level in female mouse; type: ADME, organism-based; settings: CB6F1-TGrasH2, mouse, in vivo
[29] = AUC of aliskiren hemifumarate following 8 day once-daily dosing of SPP100B oral solution at 160 mg level studied on day 8 in men; type: ADME, organism-based; settings: male, human, plasma
[30] = Blood clearance (0-168h) of unlabeled aliskiren hemifumarate following single intravenous administration of aliskiren hemifumarate at 1 mg.Kg-1 level in marmoset; type: ADME, organism-based, Callithrix jacchus; settings: in vivo
[31] = AUC(0-24h) of aliskiren hemifumarate following 2 week oral dosing of aliskiren hemifumarate at 100 mg.Kg-1 level studied on day 14 in female Callithrix jacchus; type: ADME, organism-based; settings: marmoset, plasma

COCCCOc1cc(C[C@@H](C[C@H](N)[C@@H](O)C[C@H](C(=O)NCC(C)(C)C(N)=O)C(C)C)C(C)C)ccc1OC
inhibition at 20 µM (CYP1A2): -5.8% | Compound recovery [1]: 78%

COCCCOc1cc(C[C@@H](C[C@H](N)[C@@H](O)C[C@H](C(=O)NCC([14CH3])([14CH3])C(N)=O)C(C)C)C(C)C)ccc1OC.O=C(O)/C=C/C(=O)O
Radiolabel recovery [2]: 94.8% | Radiolabel recovery [3]: 2.54% | Radiolabel recovery [4]: 0.57% | Radiolabel recovery [5]: OUTCOME = Observed, VALUE = Highest radioactivity concentration was observed | Radiolabel recovery [6]: 95.25% | Radiolabel recovery [7]: 4% | Radiolabel recovery [8]: 1.98% | CL (Cytochrome P450 3A4): 1013.1 µL·min/nmol | Radiolabel recovery [9]: 93.08% | Radiolabel recovery [10]: 0.36% | Compound recovery [11]: 56% | Radiolabel recovery [12]: OUTCOME = Detected

COCCCOc1cc(C[C@@H](C[C@H](N)[C@@H](O)C[C@H](C(=O)NCC(C)(C)C(N)=O)C(C)C)C(C)C)ccc1OC.COCCCOc1cc(C[C@@H](C[C@H](N)[C@@H](O)C[C@H](C(=O)NCC(C)(C)C(N)=O)C(C)C)C(C)C)ccc1OC.O=C(O)/C=C/C(=O)O [ALISKIREN FUMARATE]
Cmax [13]: 1450 nM | Cmax [14]: 6730 ng/mL | AUC at 168 h [15]: 49 µM·h | AUC normalised [16]: 3.39 ((ug.h.ml-1)/(mg/kg) | Plasma magnesium_CHANGE_BY [17]: 130% | Cmax [18]: 12300 ng/mL | half-life [19]: 7.8 h | AUC(0-t) at 24 h [20]: 1700 ng·h/mL | Tmax [21]: 2 h | AUC normalised [22]: 49 (umol.h/L)/(mg/kg) | BUN_CHANGE_BY [23]: 5% | Change in hematology [24]: OUTCOME = Hematological parameter values did not differ from control values. No animals died during the study. | Change in density of uterine gland [25]: OUTCOME = Decreased. No animals died during the study. | Cmax normalised [26]: 0.396 (ug/ml)/(mg/kg) | Cmax [27]: 5.1 ng/mL | Cmax [28]: 1020 ng/mL | AUC at 192 h [29]: 363 ng·h/mL | Blood clearance [30]: 0.055 L·h/kg | AUC at 24 h [31]: 142000 ng·h/mL
